{
  "source": "paper PMC10201364",
  "about": "(MicrobiologyOpen, 2023)",
  "key": {"[1]": {"tested_on": "274‐bp DNA fragment harboring the entire barR‐aminotransferase intergenic region (WT promoter)", "test": "EMSA of Ah‐BarR with WT promoter fragment", "design": "species or system Acidianus hospitalis", "details": "5 mM β‐alanine added to binding reactions", "description": "Electrophoretic mobility shift assays (EMSAs) were performed as described (Charlier & Bervoets, [2022]). Either the forward or the reverse primer was radioactively labeled, using fresh γ‐^32P‐ATP (Perkin Elmer) and T4 polynucleotide kinase (Thermo Scientific). Labeled promoter fragments were obtained by PCR using Taq DNA polymerase (Promega), a ^32P‐labeled primer, a non‐labeled second primer, and a plasmid template (Table A4). Labeled fragments were purified by acrylamide gel electrophoresis. EMSA reactions were prepared in protein‐DNA binding buffer (20 mM Tris‐HCl pH 8.0, 50 mM NaCl, 0.4 mM EDTA, 0.1 mM DTT, 1 mM MgCl2, 12.5% glycerol) with each reaction containing 1 µL (20 cps/µL) of ^32P‐labeled promoter fragment, an excess (25 µg/mL) of non‐labeled, nonspecific competitor DNA (sonicated salmon sperm DNA, Invitrogen), and purified Ah‐BarR protein. Amino acids were added to the reactions in the mentioned concentrations. […] Scans of the gels were analyzed by densitometry using ImageJ (Schneider et al., [2012]), after which GraphPad PRISM (version 9.3.1 for Windows, GraphPad Software, www.graphpad.com) was used to perform Hill curve fitting using nonlinear regression for saturated binding (one site, specific binding), and to determine apparent equilibrium dissociation constants K D."}, "[2]": {"target": "Ah‐BarR (P ah‐barR promoter, mKate2 reporter) (Acidianus hospitalis, UniProt F4B5V3)", "sequence (F4B5V3 1-165)": "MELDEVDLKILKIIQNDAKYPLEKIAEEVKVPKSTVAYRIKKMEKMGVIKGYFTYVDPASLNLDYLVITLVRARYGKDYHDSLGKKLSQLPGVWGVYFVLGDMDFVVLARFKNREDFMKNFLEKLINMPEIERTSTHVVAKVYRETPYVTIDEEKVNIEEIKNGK", "test": "cell-based", "description": "(§1) Reporter gene assays were performed as previously described (Bernauw et al., [2022]). pPRC6 and pITC variants (Table 1) were co‐transformed in E. coli MG1655 chemical competent cells using heat shock transformation. Transformant colonies of the Ah‐BarR biosensor strains were picked to inoculate wells of a transparent 96‐well plate (Greiner Bio‐One), each well filled with 200 µL of MOPS EZ Rich Defined medium (Teknova), prepared without the addition of the 5X EZ Supplement, after which the plate was incubated overnight in a ThermoMixer C (Eppendorf) at 30°C and 300 rpm. Next, a black 96‐well plate was filled with a naringenin solution prepared in ethanol (250 mg/L or 2.5 g/L), after which a Breathe‐Easy sealing membrane (Sigma‐Aldrich) was applied and the ethanol was evaporated in a ThermoMixer C (Eppendorf) at 75°C. […] Finally, the plate was sealed again using a Breathe‐Easy sealing membrane (Sigma‐Aldrich).\n(§2) Plates were incubated at 30°C and 300 rpm for 40 h in a Synergy H1 microplate reader (BioTek) with measurements of OD600 and fluorescence (excitation wavelength: 588 nm, emission wavelength: 633 nm) being taken every 20 min. The gain was set to 140 for all measurements, except for the measurements with the amino acids (pools and separately), where the gain was set to 150. […] In addition, wells solely containing medium were measured as well to correct for the background signal.\n(§3) Reporter expression was analyzed at t = 30 h, when all cultures had reached the stationary phase, by taking into account three subsequent time points (t–1, t, t+1). The corrected FL/OD600 value was calculated for each replicate (n = 4) as follows: FL/ODcor=FLt−1−FLmed,t−1/ODt−1−ODmed,t−1+FLt−FLmed,t/ODt−ODmed,t+FLt+1−FLmed,t+1/ODt+1−ODmed,t+1/3\n(§4) Response curves were fitted to a Hill function of the shape P(M)=b+aM^n/θ^n+M^nforaβ−alanine−inducible responseb+aθ^n/θ^n+M^nforaβ−alanine−repressible response according to a previously published procedure (Landry et al., [2018]) with minor adaptations. […] Briefly, lmfit 1.1.0 was used to fit all replicates of a response curve to the appropriate Hill function using the Levenberg‐Marquardt algorithm (Moré, [1978]; Newville et al., [2016]). […] The dynamic range was estimated as μ=a/b ."}, "[3]": {"target": "Ah‐BarR T134A (P ah‐barR promoter, mKate2 reporter) (Acidianus hospitalis, UniProt F4B5V3, T134A)", "sequence (F4B5V3 entry or part of it T134A)": "as the sequence (F4B5V3 1-165) above, with T134A counted along it", "test": "cell-based", "description": "as §1, §2, §3, §4"}, "[4]": {"target": "Ah‐BarR T136A (P ah‐barR promoter, mKate2 reporter) (Acidianus hospitalis, UniProt F4B5V3, T136A)", "sequence (F4B5V3 entry or part of it T136A)": "as the sequence (F4B5V3 1-165) above, with T136A counted along it", "test": "cell-based", "description": "as §1, §2, §3, §4"}, "[5]": {"target": "Ah‐BarR M103N (P ah‐barR promoter, mKate2 reporter) (Acidianus hospitalis, UniProt F4B5V3, M103N)", "sequence (F4B5V3 entry or part of it M103N)": "as the sequence (F4B5V3 1-165) above, with M103N counted along it", "test": "cell-based", "format": "cell-based", "description": "as §1, §2, §3, §4"}, "[6]": {"target": "Ah‐BarR M103T (P ah‐barR promoter, mKate2 reporter) (Acidianus hospitalis, UniProt F4B5V3, M103T)", "sequence (F4B5V3 entry or part of it M103T)": "as the sequence (F4B5V3 1-165) above, with M103T counted along it", "test": "cell-based", "format": "cell-based", "description": "as §1, §2, §3, §4"}, "[7]": {"target": "Ah‐BarR trunc (P ah‐barR promoter, mKate2 reporter) (Acidianus hospitalis, UniProt F4B5V3)", "sequence (F4B5V3 entry or part of it)": "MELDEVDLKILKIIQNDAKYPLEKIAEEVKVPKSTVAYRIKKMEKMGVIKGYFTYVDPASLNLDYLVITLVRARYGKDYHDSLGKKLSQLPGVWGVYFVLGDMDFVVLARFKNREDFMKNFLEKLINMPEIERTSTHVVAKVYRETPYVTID", "description": "as §1, §2, §3, §4"}, "[8]": {"target": "Ah‐BarR (S. acidocaldarius promoter P sa‐at, mKate2 reporter) (Acidianus hospitalis, UniProt F4B5V3)", "sequence (F4B5V3 1-165)": "as the sequence (F4B5V3 1-165) above", "test": "cell-based", "description": "as §1, §2, §3, §4\n(§5) Additional in vivo experiments were performed on strains BS3 and BS4 using the S. acidocaldarius promoters P sa‐barR and P sa‐at , respectively, in combination with Ah‐BarR."}, "[9]": {"target": "Ah‐BarR (S. acidocaldarius promoter P sa‐barR, mKate2 reporter) (Acidianus hospitalis, UniProt F4B5V3)", "sequence (F4B5V3 1-165)": "as above", "test": "cell-based", "description": "as §1, §2, §3, §4, §5"}, "[10]": {"details": "BS1, β‐alanine 0–10 mM, 20 mg/L naringenin, t = 30 h, Hill fit"}, "[11]": {"details": "BS1 T134A, β‐alanine 0–10 mM, 20 mg/L naringenin, Hill fit"}, "[12]": {"details": "BS1 T136A, β‐alanine 0–10 mM, 20 mg/L naringenin, Hill fit"}, "[13]": {"details": "BS1 M103T, β‐alanine 0–10 mM, 20 mg/L naringenin, Hill fit"}, "[14]": {"details": "BS4, β‐alanine 0–10 mM, 20 mg/L naringenin, Hill fit"}, "[15]": {"details": "BS3, β‐alanine 0–10 mM, 20 mg/L naringenin, Hill fit"}},
  "data": [
    {"smiles": "NCCC(=O)O", "note": "[β‐alanine]", "values": [
      {"measurement": "effect of β‐alanine on formation of Ah‐BarR‐DNA complexes", "setting": "[1]", "value": "did not significantly alter"},
      {"measurement": "EC50", "setting": "[2]", "value": 370, "unit": "µM"},
      {"measurement": "Hill coefficient n", "setting": "[2]; BS1, 20 mg/L naringenin", "value": 1.77},
      {"measurement": "Dynamic range µ", "setting": "[2]; BS1, µ = a/b", "value": 3.07},
      {"measurement": "Basal fluorescence output b", "setting": "[2]; [10]", "value": 2226, "unit": "RFU"},
      {"measurement": "Maximum fluorescence increase a", "setting": "[2]; [10]", "value": 6828, "unit": "RFU"},
      {"measurement": "ligand specificity: effect on transcriptional regulation of barR and at", "setting": "[2]; BS1 and BS2 strains, 20 mg/L naringenin, individual amino acids of pools 1 and 7 at 3/5 mM", "value": "specifically ascribed to β‐alanine"},
      {"measurement": "EC50", "setting": "[3]", "value": 1610, "unit": "µM"},
      {"measurement": "Hill coefficient n", "setting": "[3]; BS1 T134A, 20 mg/L naringenin", "value": 1.68},
      {"measurement": "Dynamic range µ", "setting": "[3]; BS1 T134A, µ = a/b", "value": 4.06},
      {"measurement": "Basal fluorescence output b", "setting": "[3]; [11]", "value": 2145, "unit": "RFU"},
      {"measurement": "Maximum fluorescence increase a", "setting": "[3]; [11]", "value": 8703, "unit": "RFU"},
      {"measurement": "EC50", "setting": "[4]", "value": 960, "unit": "µM"},
      {"measurement": "Hill coefficient n", "setting": "[4]; BS1 T136A, 20 mg/L naringenin", "value": 1.36},
      {"measurement": "Dynamic range µ", "setting": "[4]; BS1 T136A, µ = a/b", "value": 3.31},
      {"measurement": "Basal fluorescence output b", "setting": "[4]; [12]", "value": 2469, "unit": "RFU"},
      {"measurement": "Maximum fluorescence increase a", "setting": "[4]; [12]", "value": 8171, "unit": "RFU"},
      {"measurement": "Basal fluorescence output b", "setting": "[5]", "value": 2281, "unit": "RFU"},
      {"measurement": "Dynamic range µ", "setting": "[5]", "value": 4.11},
      {"measurement": "EC50", "setting": "[5]", "value": 460, "unit": "µM"},
      {"measurement": "Hill coefficient n", "setting": "[5]", "value": 1.48},
      {"measurement": "Maximum fluorescence increase a", "setting": "[5]", "value": 9373, "unit": "RFU"},
      {"measurement": "EC50", "setting": "[6]", "value": 320, "unit": "µM"},
      {"measurement": "Hill coefficient n", "setting": "[6]; BS1 M103T, 20 mg/L naringenin", "value": 1.36},
      {"measurement": "Dynamic range µ", "setting": "[6]; BS1 M103T, µ = a/b", "value": 2.49},
      {"measurement": "Basal fluorescence output b", "setting": "[6]; [13]", "value": 3184, "unit": "RFU"},
      {"measurement": "Maximum fluorescence increase a", "setting": "[6]; [13]", "value": 7915, "unit": "RFU"},
      {"measurement": "Basal fluorescence output b", "setting": "[7]", "value": 2485, "unit": "RFU"},
      {"measurement": "Dynamic range µ", "setting": "[7]", "value": 3.56},
      {"measurement": "Hill coefficient n", "setting": "[7]", "value": 1.60},
      {"measurement": "Maximum fluorescence increase a", "setting": "[7]", "value": 8840, "unit": "RFU"},
      {"measurement": "EC50", "setting": "[7]; read-out: Threshold θ, BS1 trunc, 20 mg/L naringenin", "value": 260, "unit": "µM"},
      {"measurement": "EC50", "setting": "[8]", "value": 90, "unit": "µM"},
      {"measurement": "Hill coefficient n", "setting": "[8]; BS4, 20 mg/L naringenin", "value": 2.99},
      {"measurement": "Dynamic range µ", "setting": "[8]; BS4, µ = a/b", "value": 5.15},
      {"measurement": "Basal fluorescence output b", "setting": "[8]; [14]", "value": "13,873 RFU"},
      {"measurement": "Maximum fluorescence increase a", "setting": "[8]; [14]", "value": "71,426 RFU"},
      {"measurement": "EC50", "setting": "[9]", "value": 100, "unit": "µM"},
      {"measurement": "Hill coefficient n", "setting": "[9]; BS3, 20 mg/L naringenin", "value": 2.00},
      {"measurement": "Dynamic range µ", "setting": "[9]; BS3, µ = a/b", "value": 1.17},
      {"measurement": "Basal fluorescence output b", "setting": "[9]; [15]", "value": 4595, "unit": "RFU"},
      {"measurement": "Maximum fluorescence increase a", "setting": "[9]; [15]", "value": 5355, "unit": "RFU"}
    ]}
  ]
}
